Results published in US9921406B2, “Targeted dual-axes confocal imaging apparatus with vertical scanning capabilities” (THE REGENTS OF THE UNIVERSITY OF MICHIGAN, priority 2009, dated 2018).
“Also recorded” adds a separate entry of the source.

Tests used:
CXCR7 = target: T1, CXCR7 (Homo sapiens, UniProt P25106); assay: CXCR7/β-arrestin 2 firefly luciferase complementation assay for CXCR7 activation; format: cell-based
T1 construct: expressed in transfected cells; host or cells: reporter cells stably expressing the CXCR7/β-arrestin 2 PCA
From the text: Binding of synthetic or natural ligands to 7-transmembrane receptors activates the receptor, resulting in receptor activation and recruitment of β-arrestin, a cytosolic adapter protein. The protein interaction between CXCR7 and β-arrestin 2 has been used to develop a protein fragment complementation assay for detecting activation of CXCR7. […] Ligand-dependent interaction of CXCR7 and β-arrestin 2 also brings together NLuc and CLuc fragments, which reconstitutes active firefly luciferase.
Ligands for CXCR7 activate the receptor, causing recruitment of β-arrestin. To determine to what extent the engineered knottin interacts with CXCR7, firefly luciferase complementation for CXCR7 activation was used as a reporter for binding of the peptide to the receptor. CXCR7/β-arrestin reporter cells were incubated with increasing concentrations of CXCR7-targeted knottin for 2 hours and then luciferase activity was quantified in living cells.

CXCR4 = target: T2, CXCR4 (Homo sapiens, UniProt P61073); assay: Luciferase complementation for recruitment of β-arrestin to CXCR4; format: cell-based
T2 construct: expressed in transfected cells

[1] = system: adenomas (dysplastic polyps) in the rectum; assay: In vivo fluorescence endoscopy of topically applied peptide in CPC;APC mouse model of colon cancer; conditions: FITC-labeled peptide 10 μM, 1 ml topical, ~10 minute dwell, PBS rinse
From the text: This small animal endoscope (Karl Storz Veterinary Endoscopy, Goleta, Calif.) consists of a 9.5 Fr (3 mm) diameter rigid Hopkins II 0 deg telescope with a 11.5 cm working length and a 3 Fr (1 mm) diameter instrument channel for performing tissue biopsy. Fluorescence excitation is produced with a 450 to 475 nm passband filter that can be manually switched into the optical path of a 175 W Nova Xenon light source, and is delivered to the endoscope via a 3 mm diameter fluid light cable with 250 cm length. Fluorescence images are collected with 510 nm barrier filter to block the excitation light, and are detected with a 3-chip color camera with an integrated parfocal zoom lens. Real time video can be recorded via firewire connected to a personal computer.
The rectum of the mouse was first cleaned of stool and debris by performing tap water lavage, and then the distal end of the small animal endoscope was lubricated and inserted into the rectum of the mouse. Once adenomas were identified on white light, shown in FIG. 25A, a 1 ml solution of FITC-labeled peptide “VRPMPLQ” at a concentration of 10 μM was applied through the instrument channel with a syringe, and allowed to dwell for ˜10 minute, followed by gentle rinsing with PBS. […] The rectum was then rinsed vigorously with PBS. Complete removal of the peptide from the rectal mucosa was observed on fluorescence. […]

colonic adenoma = conditions: topical, cited from earlier work

T1 sequence (P25106 whole entry, species assumed): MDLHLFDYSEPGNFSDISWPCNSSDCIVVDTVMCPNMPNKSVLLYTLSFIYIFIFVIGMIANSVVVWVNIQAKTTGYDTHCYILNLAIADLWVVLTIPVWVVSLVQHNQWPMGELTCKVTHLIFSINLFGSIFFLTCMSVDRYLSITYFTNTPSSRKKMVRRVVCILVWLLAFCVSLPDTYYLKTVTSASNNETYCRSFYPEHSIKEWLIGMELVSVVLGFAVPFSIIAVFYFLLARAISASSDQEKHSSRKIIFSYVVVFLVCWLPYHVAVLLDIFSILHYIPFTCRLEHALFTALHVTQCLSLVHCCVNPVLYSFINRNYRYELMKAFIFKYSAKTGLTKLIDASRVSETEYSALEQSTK
T1 sequence (P32121 whole entry partner, species assumed): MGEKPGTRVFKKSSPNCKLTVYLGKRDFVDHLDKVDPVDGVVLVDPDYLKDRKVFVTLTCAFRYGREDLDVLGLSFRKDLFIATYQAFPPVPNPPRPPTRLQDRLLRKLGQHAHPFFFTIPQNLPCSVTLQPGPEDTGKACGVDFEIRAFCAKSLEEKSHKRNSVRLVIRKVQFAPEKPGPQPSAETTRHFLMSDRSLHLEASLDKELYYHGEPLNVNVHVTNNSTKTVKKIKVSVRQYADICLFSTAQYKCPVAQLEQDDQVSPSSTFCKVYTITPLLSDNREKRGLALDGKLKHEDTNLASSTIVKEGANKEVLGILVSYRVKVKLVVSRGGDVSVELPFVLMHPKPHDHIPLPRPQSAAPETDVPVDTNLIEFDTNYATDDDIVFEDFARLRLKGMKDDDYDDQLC
T2 sequence (P61073 whole entry, species assumed): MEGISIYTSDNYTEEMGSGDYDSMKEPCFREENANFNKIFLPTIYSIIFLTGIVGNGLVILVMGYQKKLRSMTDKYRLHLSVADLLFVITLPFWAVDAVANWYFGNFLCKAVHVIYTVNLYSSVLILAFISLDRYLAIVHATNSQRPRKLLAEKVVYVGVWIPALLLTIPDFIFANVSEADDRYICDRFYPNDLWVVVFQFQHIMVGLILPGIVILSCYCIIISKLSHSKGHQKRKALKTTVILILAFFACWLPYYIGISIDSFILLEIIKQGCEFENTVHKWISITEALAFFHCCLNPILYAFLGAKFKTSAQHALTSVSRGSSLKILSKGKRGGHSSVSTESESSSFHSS

Substance	selectivity CXCR7 versus CXCR4 (CXCR7; from luciferase complementation for both receptors)	activation of CXCR7 (bioluminescence) (CXCR7; reporter cells, living cells, knottin incubated 2 hours with increasing concentrations)	activation of CXCR4 (recruitment of β-arrestin) (CXCR4)	peptide binding to adenomas (fluorescence image) [1]	peptide binding seen in fluorescence image, adenoma versus normal mucosa (colonic adenoma; 50 μm depth, FIG. 23B)	average contrast ratio (adenoma:normal fluorescence intensity) (colonic adenoma; imaged at 50 μm depth, n=10 adenomas and adjacent normal mucosa)
GGCKPVSLSYRAPARFCKQDSDCLAGCVCGPNGFCGSA [CXCR7-targeted knottin]	selectively interacts with CXCR7 and not CXCR4	increased bioluminescence; also recorded: dose-dependent activation of CXCR7	did not activate CXCR4			
QLMRPPV [FITC-labeled scrambled (control) peptide, reference compound]				significantly less fluorescence intensity; also recorded: reduced binding		
VRPMPLQ [7mer peptide from phage display, conjugated to fluorescein using a hexanoic acid linker to the N-terminus]				preferential peptide binding to the adenomas; also recorded: affinity binding	significant peptide binding to colonocytes surrounding dysplastic crypts (adenoma)	21±6
